Counter-ions that a name gives are not always drawn.

The values that follow come from patent US12329747B2, “Use of lipophilic beta-lactam antibiotics and carboxylate esters for the treatment of bacterial infections within citrus and other plant species” (priority 2019, dated 2025).

For one series, the system named is HLB. As to conditions: cited from earlier work; for effect on HLB infected trees: spraying or common treatment, background statement.
The next series relates to citrus leaves. As to conditions: external application, background statement; cited from earlier work.
Series [1] relates to Murcott mandarin clippings. The series is described as follows: Foliar application to citrus clippings, negative ESI mass spectrum of reservoir water after 24 hours. The conditions noted are these: 25 μmoles in 1:1 neem oil, 24 hour incubation; for penicillin G/V or metabolite peaks detected in reservoir water: negative ESI mass spectrum.
The subject of series [2] is fire blight (Erwinia amylovera). As to conditions: background statement; cited from earlier work.
Another series deals with Candidatus Liberibacter. As to conditions: background statement, cited from earlier work; for effectiveness against the pathogenic bacteria: grafting method.

In the case of `[Cu]` [Copper], the “effect on HLB infected trees” value in the series with HLB is “not been found to be effective”.

Take `CC[C@H]1CCC[C@H](O[C@H]2CC[C@H](N(C)C)[C@@H](C)O2)[C@@H](C)C(=O)C2=C[C@@H]3[C@@H](C=C[C@@H]4C[C@@H](O[C@@H]5O[C@@H](C)[C@H](OC)[C@@H](OC)[C@H]5OC)C[C@@H]34)[C@@H]2CC(=O)O1` [Spinosyn A]: the “penetration of citrus leaves or stems” value with citrus leaves is reported as “known to readily penetrate citrus leaves”.

On to `COC(=O)[C@@H]1N2C(=O)[C@@H](NC(=O)Cc3ccccc3)[C@H]2SC1(C)C` [product compound 1, Methyl(2S,5R,6R)-3,3-dimethyl-7-oxo-6-(2-phenylacetamido)-4-thia-1-azabicyclo[3.2.0]heptane-2-carboxylate], for which, in series [1], the “hydrolysis of the ester into the active antibiotic by citrus tissue” value (from here on “hydrolysis”) is listed as “not being successfully metabolized to the active antibiotic”; the “penetration of waxy cuticle layer and epidermis to access the phloem” value (shortened to “penetration … to access the phloem”) is “affectively penetrate through the waxy cuticle layer and through the epidermis to access the phloem”.

Regarding `COC(=O)[C@@H]1N2C(=O)[C@@H](NC(=O)COc3ccccc3)[C@H]2SC1(C)C` [product compound 2, Methyl(2S,5R,6R)-3,3-dimethyl-7-oxo-6-(2-phenoxyacetamido)-4-thia-1-azabicyclo[3.2.0]heptane-2-carboxylate], in series [1], the “hydrolysis” value is recorded as “not being successfully metabolized to the active antibiotic”; the “penetration … to access the phloem” value was “affectively penetrate through the waxy cuticle layer and through the epidermis to access the phloem”.

For the compound `CC1(C)S[C@@H]2[C@H](NC(=O)Cc3ccccc3)C(=O)N2[C@H]1C(=O)OCc1ccccc1` [product compound 3, Benzyl(2S,5R,6R)-3,3-dimethyl-7-oxo-6-(2-phenylacetamido)-4-thia-1-azabicyclo[3.2.0]heptane-2-carboxylate], in series [1], the “penetration … to access the phloem” value was “substantially reduce permeability”; the “penicillin G/V or metabolite peaks detected in reservoir water” value is “no recognizable metabolite peaks were detected”.

As to `CC1(C)S[C@@H]2[C@H](NC(=O)COc3ccccc3)C(=O)N2[C@H]1C(=O)OCc1ccccc1` [product compound 4, Benzyl(2S,5R,6R)-3,3-dimethyl-7-oxo-6-(2-phenoxyacetamido)-4-thia-1-azabicyclo[3.2.0]heptane-2-carboxylate], in series [1], the “penetration … to access the phloem” value was “substantially reduce permeability”; the “penicillin G/V or metabolite peaks detected in reservoir water” value was “no recognizable metabolite peaks were detected”.

As to `CCCCCCCCCC(=O)OCOC(=O)[C@@H]1N2C(=O)[C@@H](NC(=O)Cc3ccccc3)[C@H]2SC1(C)C` [product compound 5, (Decanoyloxy)methyl (2S,5R,6R)-3,3-dimethyl-7-oxo-6-(2-phenylacetamido)-4-thia-1-azabicyclo[3.2.0]heptane-2-carboxylate], in series [1], the “hydrolysis” value is reported as “hydrolyzed into the active antibiotic”; the “penetration … to access the phloem” value is “affectively penetrate through the waxy cuticle layer and through the epidermis to access the phloem”; the “penicillin G/V or metabolite peaks detected in reservoir water” value is “base peaks in the mass spectrum corresponded to the active antibiotics”.

For the compound `CCCCCCCCCC(=O)OCOC(=O)[C@@H]1N2C(=O)[C@@H](NC(=O)COc3ccccc3)[C@H]2SC1(C)C` [product compound 6, (Decanoyloxy)methyl(2S,5R,6R)-3,3-dimethyl-7-oxo-6-(2-phenoxyacetamido)-4-thia-1-azabicyclo[3.2.0]heptane-2-carboxylate], in series [1], the “hydrolysis” value is on record as “hydrolyzed into the active antibiotic”; the “penetration … to access the phloem” value is “affectively penetrate through the waxy cuticle layer and through the epidermis to access the phloem”; the “penicillin G/V or metabolite peaks detected in reservoir water” value is “base peaks in the mass spectrum corresponded to the active antibiotics”.

Regarding `CC(C)(C)C(=O)OCOC(=O)[C@@H]1N2C(=O)[C@@H](NC(=O)Cc3ccccc3)[C@H]2SC1(C)C` [product compound 7, (Pivaloyloxy)methyl (2S,5R,6R)-3,3-dimethyl-7-oxo-6-(2-phenylacetamido)-4-thia-1-azabicyclo[3.2.0]heptane-2-carboxylate], in series [1], the “hydrolysis” value is “hydrolyzed into the active antibiotic”; the “penetration … to access the phloem” value was “affectively penetrate through the waxy cuticle layer and through the epidermis to access the phloem”; the “penicillin G/V or metabolite peaks detected in reservoir water” value was “base peaks in the mass spectrum corresponded to the active antibiotics”.

Consider `CC(C)(C)C(=O)OCOC(=O)[C@@H]1N2C(=O)[C@@H](NC(=O)COc3ccccc3)[C@H]2SC1(C)C` [product compound 8, (Pivaloyloxy)methyl (2S,5R,6R)-3,3-dimethyl-7-oxo-6-(2-phenoxyacetamido)-4-thia-1-azabicyclo[3.2.0]heptane-2-carboxylate], for which, in series [1], the “hydrolysis” value is listed as “hydrolyzed into the active antibiotic”; the “penetration … to access the phloem” value was “affectively penetrate through the waxy cuticle layer and through the epidermis to access the phloem”; the “penicillin G/V or metabolite peaks detected in reservoir water” value is “base peaks in the mass spectrum corresponded to the active antibiotics”.

Turning to `[H]/N=C(/N)N[C@H]1[C@H](O)[C@@H](O)[C@H](O[C@@H]2O[C@@H](C)[C@](O)(C=O)[C@H]2O[C@@H]2O[C@@H](CO)[C@H](O)[C@@H](O)[C@@H]2NC)[C@@H](N/C(N)=N\[H])[C@@H]1O` [streptomycin sulfate], the “bactericidal or bacteriostatic action” value in series [2] is reported as “bactericidal”. Besides, the “effect on HLB infected trees” value in the series with HLB was “only marginally improved the health of trees”.

benzylpenicillin (penicillin G): in the series on Candidatus Liberibacter, the phytotoxicity result is “very little phytotoxicity” and the “effectiveness against the pathogenic bacteria” value is given as “extremely effective”. For the same compound, in the series on citrus leaves, the “penetration of citrus leaves or stems” value is on record as “do not easily penetrate the waxy cuticle covering”. Also, the “effect on tree health” value in the series on HLB (direct injected into infected citrus trees, alone or in combinations with other antibiotics) is given as “marked improvement”.

In the case of phenoxymethylpenicillin (penicillin V), in the series on Candidatus Liberibacter, the phytotoxicity result is recorded as “very little phytotoxicity” and the “effectiveness against the pathogenic bacteria” value is given as “extremely effective”. The “penetration of citrus leaves or stems” value in the series with citrus leaves is listed as “do not easily penetrate the waxy cuticle covering”.
